# Source: patent US12091411B2, “IRAK degraders and uses thereof” (Kymera Therapeutics, Inc., priority 2022, dated 2024)
# Like-named read-outs stand apart in the source and are kept apart here.
# Target: T1, IRAK4 (Homo sapiens, UniProt Q9NWZ3)
# T1 construct: Degradation of IRAK4 in OCI-LY10 was quantitatively measured using Meso Scale Discovery technology; endogenous in cells; host or cells: OCI-LY10
# T1 sequence (Q9NWZ3 1-460): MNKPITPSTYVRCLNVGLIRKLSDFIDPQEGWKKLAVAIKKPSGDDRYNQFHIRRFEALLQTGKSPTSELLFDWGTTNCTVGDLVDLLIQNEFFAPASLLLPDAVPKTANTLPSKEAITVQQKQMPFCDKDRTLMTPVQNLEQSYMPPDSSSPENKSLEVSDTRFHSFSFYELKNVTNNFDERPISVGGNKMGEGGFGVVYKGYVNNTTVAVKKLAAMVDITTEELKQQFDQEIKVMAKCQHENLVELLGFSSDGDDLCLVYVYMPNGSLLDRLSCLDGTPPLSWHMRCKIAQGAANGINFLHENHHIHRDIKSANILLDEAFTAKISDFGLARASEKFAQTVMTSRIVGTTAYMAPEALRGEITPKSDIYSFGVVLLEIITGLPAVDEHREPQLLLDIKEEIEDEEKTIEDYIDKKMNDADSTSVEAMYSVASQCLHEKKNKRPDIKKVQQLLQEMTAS
# Test: IRAK4 MSD Degradation in OCI-LY10
# Format: cell-based
# Conditions: OCI-LY10 cells, MSD
# Outline: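 OCI-LY10 cells exposed to 8-point 1:3 compound series (top 1 to 10 μM) for 4 to 24 h at 37 °C, 5% CO2. Lysate IRAK4 quantified by MSD sandwich immunoassay. DC50 from three-parameter logistic fit, binned A (<0.01 μM) to D (>0.2 μM or not tested).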
# [1] = 4 hrs incubation, read-out: IRAK4 degradation in OCI-LY10 at 4 hrs: DC50
# [2] = 24 hrs incubation, read-out: IRAK4 degradation in OCI-LY10 at 24 hrs: DC50
SMILES,DC50 [1] [nM],DC50 [2] [nM]
Cn1c(=O)n(C2CCC(=O)NC2=O)c2cccc(C#CCN3CCN(C[C@H]4CC[C@H](n5cc(NC(=O)c6cnn7ccc(N8CCC9(CCOCC9)C8)nc67)c(C(F)F)n5)CC4)CC3)c21 (some centres unmarked) [I-319],> 200,< 10
Cn1c(=O)n(C2CCC(=O)NC2=O)c2cccc(C#CCN3CCN(C[C@H]4CC[C@H](n5cc(NC(=O)c6cnn7ccc(N8CCC9(COC9)C8)nc67)c(C(F)F)n5)CC4)CC3)c21 (some centres unmarked) [I-320],< 10,> 200
Cn1c(=O)n(C2CCC(=O)NC2=O)c2cccc(C#CCN3CCN(C[C@H]4CC[C@H](n5cc(NC(=O)c6cnn7ccc(N8CCC9(CCOC9)C8)nc67)c(C(F)F)n5)CC4)CC3)c21 (some centres unmarked) [I-321],> 200,< 10
Cn1c(=O)n(C2CCC(=O)NC2=O)c2cccc(C#CCN3CCN(C[C@H]4CC[C@H](n5cc(NC(=O)c6cnn7ccc(N8CCOC(C(F)(F)F)C8)nc67)c(C(F)F)n5)CC4)CC3)c21 (some centres unmarked) [I-322],> 200,> 200
Cn1c(=O)n(C2CCC(=O)NC2=O)c2cccc(C#CCN3CCN(C[C@H]4CC[C@H](n5cc(NC(=O)c6cnn7ccc(N8CC9COCC9C8)nc67)c(C(F)F)n5)CC4)CC3)c21 (some centres unmarked) [I-323],> 200,> 200
Cn1c(=O)n(C2CCC(=O)NC2=O)c2cccc(C#CCN3CCN(C[C@H]4CC[C@H](n5cc(NC(=O)c6cnn7ccc(N8CCOC(F)(F)C8)nc67)c(C(F)F)n5)CC4)CC3)c21 (some centres unmarked) [I-324],> 200,> 200
Cn1c(=O)n(C2CCC(=O)NC2=O)c2cccc(C#CCOC3CCN(C[C@H]4CC[C@H](n5cc(NC(=O)c6cnn7ccc(N8CC9(COC9)C8)nc67)c(C(F)F)n5)CC4)CC3)c21 (some centres unmarked) [I-325],> 200,> 200
Cn1c(=O)n(C2CCC(=O)NC2=O)c2cccc(C#CCOC3CCN(C[C@H]4CC[C@H](n5cc(NC(=O)c6cnn7ccc(N8CC9(CCOCC9)C8)nc67)c(C(F)F)n5)CC4)CC3)c21 (some centres unmarked) [I-326],10 to 100,> 200
Cn1c(=O)n(C2CCC(=O)NC2=O)c2cccc(C#CCOC3CCN(C[C@H]4CC[C@H](n5cc(NC(=O)c6cnn7ccc(N8CC9(CCOC9)C8)nc67)c(C(F)F)n5)CC4)CC3)c21 (some centres unmarked) [I-327],> 200,< 10
Cn1c(=O)n(C2CCC(=O)NC2=O)c2cccc(C#CCOC3CCN(C[C@H]4CC[C@H](n5cc(NC(=O)c6cnn7ccc(N8CC9(CCCOC9)C8)nc67)c(C(F)F)n5)CC4)CC3)c21 (some centres unmarked) [I-328],10 to 100,> 200
Cn1c(=O)n(C2CCC(=O)NC2=O)c2cccc(C#CCOC3CCN(C[C@H]4CC[C@H](n5cc(NC(=O)c6cnn7ccc(N8CCC9(CCOCC9)C8)nc67)c(C(F)F)n5)CC4)CC3)c21 (some centres unmarked) [I-329],10 to 100,> 200
Cn1c(=O)n(C2CCC(=O)NC2=O)c2cccc(C#CCOC3CCN(C[C@H]4CC[C@H](n5cc(NC(=O)c6cnn7ccc(N8CCC9(COC9)C8)nc67)c(C(F)F)n5)CC4)CC3)c21 (some centres unmarked) [I-330],> 200,> 200
Cn1c(=O)n(C2CCC(=O)NC2=O)c2cccc(C#CCOC3CCN(C[C@H]4CC[C@H](n5cc(NC(=O)c6cnn7ccc(N8CCC9(CCOC9)C8)nc67)c(C(F)F)n5)CC4)CC3)c21 (some centres unmarked) [I-331],10 to 100,> 200
Cn1c(=O)n(C2CCC(=O)NC2=O)c2cccc(C#CCOC3CCN(C[C@H]4CC[C@H](n5cc(NC(=O)c6cnn7ccc(N8CC9COCC9C8)nc67)c(C(F)F)n5)CC4)CC3)c21 (some centres unmarked) [I-332],< 10,> 200
Cn1c(=O)n(C2CCC(=O)NC2=O)c2cccc(C#CCOC3CCN(C[C@H]4CC[C@H](n5cc(NC(=O)c6cnn7ccc(N8CCOC(C(F)(F)F)C8)nc67)c(C(F)F)n5)CC4)CC3)c21 (some centres unmarked) [I-333],> 200,> 200
Cn1c(=O)n(C2CCC(=O)NC2=O)c2cccc(C#CCOC3CCN(C[C@H]4CC[C@H](n5cc(NC(=O)c6cnn7ccc(N8CCOC(F)(F)C8)nc67)c(C(F)F)n5)CC4)CC3)c21 (some centres unmarked) [I-334],> 200,> 200
Cn1c(=O)n(C2CCC(=O)NC2=O)c2cccc(C#CCN3CCN(C[C@H]4CC[C@H](n5cc(NC(=O)c6cccc7ccc(N8CCC8)nc67)c(C(F)F)n5)CC4)CC3)c21 (some centres unmarked) [I-335],> 200,> 200
Cn1c(=O)n(C2CCC(=O)NC2=O)c2cccc(C#CCOC3CCN(C[C@H]4CC[C@H](n5cc(NC(=O)c6cccc7ccc(N8CCC8)nc67)c(C(F)F)n5)CC4)CC3)c21 (some centres unmarked) [I-336],> 200,> 200
Cn1c(=O)n(C2CCC(=O)NC2=O)c2cccc(C#CCN3CCN(C[C@H]4CC[C@H](n5cc(NC(=O)c6cnn7ccc(N8CC9CC(C8)O9)nc67)c(C(F)F)n5)CC4)CC3)c21 (some centres unmarked) [I-337],> 200,< 10

SMILES,DC50 [1] [nM],DC50 [2] [nM]
Cn1c(=O)n(C2CCC(=O)NC2=O)c2cccc(C#CCN3CCN(C[C@H]4CC[C@H](n5cc(NC(=O)c6cnn7ccc(N8C9COCC8C9)nc67)c(C(F)F)n5)CC4)CC3)c21 (some centres unmarked) [I-338],> 200,< 10
Cn1c(=O)n(C2CCC(=O)NC2=O)c2cccc(C#CCN3CCN(C[C@H]4CC[C@H](n5cc(NC(=O)c6cnn7ccc(N8C9CCC8COC9)nc67)c(C(F)F)n5)CC4)CC3)c21 (some centres unmarked) [I-339],< 10,> 200
Cn1c(=O)n(C2CCC(=O)NC2=O)c2cccc(C#CCN3CCN([C@H]4CC[C@H](n5cc(NC(=O)c6cnn7ccc(N8C[C@H]9C[C@@H]8CO9)nc67)c(C(F)F)n5)CC4)CC3)c21 (some centres unmarked) [I-340],> 200,> 200
Cn1c(=O)n(C2CCC(=O)NC2=O)c2cccc(C#COCC3CCN([C@H]4CC[C@H](n5cc(NC(=O)c6cnn7ccc(N8C[C@H]9C[C@@H]8CO9)nc67)c(C(F)F)n5)CC4)CC3)c21 (some centres unmarked) [I-341],> 200,> 200
Cn1c(=O)n(C2CCC(=O)NC2=O)c2cccc(C#CCN3CC4CCC(C3)N4C[C@H]3CC[C@H](n4cc(NC(=O)c5cnn6ccc(N7C[C@H]8C[C@@H]7CO8)nc56)c(C(F)F)n4)CC3)c21 (some centres unmarked) [I-342],< 10,> 200
Cn1c(=O)n(C2CCC(=O)NC2=O)c2cccc(C#CCN3C4CCC3CN(C[C@H]3CC[C@H](n5cc(NC(=O)c6cnn7ccc(N8C[C@H]9C[C@@H]8CO9)nc67)c(C(F)F)n5)CC3)C4)c21 (some centres unmarked) [I-343],> 200,< 10
Cn1c(=O)n(C2CCC(=O)NC2=O)c2cccc(C#CCN3CC4CC(C3)N4C[C@H]3CC[C@H](n4cc(NC(=O)c5cnn6ccc(N7C[C@H]8C[C@@H]7CO8)nc56)c(C(F)F)n4)CC3)c21 (some centres unmarked) [I-344],> 200,> 200
Cn1c(=O)n(C2CCC(=O)NC2=O)c2cccc(C#CCN3C4CC3CN(C[C@H]3CC[C@H](n5cc(NC(=O)c6cnn7ccc(N8C[C@H]9C[C@@H]8CO9)nc67)c(C(F)F)n5)CC3)C4)c21 (some centres unmarked) [I-345],10 to 100,> 200
Cn1c(=O)n(C2CCC(=O)NC2=O)c2cccc(C#CCN3CC4COCC(C3)N4C[C@H]3CC[C@H](n4cc(NC(=O)c5cnn6ccc(N7C[C@H]8C[C@@H]7CO8)nc56)c(C(F)F)n4)CC3)c21 (some centres unmarked) [I-348],100 to 200,> 200
Cn1c(=O)n(C2CCC(=O)NC2=O)c2cccc(C#CCN3C4COCC3CN(C[C@H]3CC[C@H](n5cc(NC(=O)c6cnn7ccc(N8C[C@H]9C[C@@H]8CO9)nc67)c(C(F)F)n5)CC3)C4)c21 (some centres unmarked) [I-349],10 to 100,> 200
Cn1c(=O)n(C2CCC(=O)NC2=O)c2cccc(C#CCN3CCN(C[C@H]4CC[C@H](n5cc(NC(=O)c6cnn7ccc(C8COC8)nc67)c(C(F)F)n5)CC4)CC3)c21 (some centres unmarked) [I-351],> 200,> 200
Cn1c(=O)n(C2CCC(=O)NC2=O)c2cccc(C#CCN3CCN(C[C@H]4CC[C@H](n5cc(NC(=O)c6cnn7ccc(N8CC(C)(C)OC(C)(C)C8)nc67)c(C(F)F)n5)CC4)CC3)c21 (some centres unmarked) [I-352],10 to 100,> 200
Cn1c(=O)n(C2CCC(=O)NC2=O)c2cccc(C#CCN3CCN(C[C@H]4CC[C@H](n5cc(NC(=O)c6cnn7ccc([C@@H]8CCOC8)nc67)c(C(F)F)n5)CC4)CC3)c21 (some centres unmarked) [I-353],> 200,> 200
Cn1c(=O)n(C2CCC(=O)NC2=O)c2cccc(C#CCN3CCN(C[C@H]4CC[C@H](n5cc(NC(=O)c6cnn7ccc([C@H]8CCOC8)nc67)c(C(F)F)n5)CC4)CC3)c21 (some centres unmarked) [I-354],> 200,> 200
CN(C[C@H]1CC[C@H](n2cc(NC(=O)c3cnn4ccc(N5CC(C)(C)OC(C)(C)C5)nc34)c(C(F)F)n2)CC1)C1CCN(c2cccc3c2n(C)c(=O)n3C2CCC(=O)NC2=O)CC1 (some centres unmarked) [I-355],10 to 100,> 200
CN(C[C@H]1CC[C@H](n2cc(NC(=O)c3cnn4ccc(N5CCOC6(CC6)C5)nc34)c(C(F)F)n2)CC1)C1CCN(c2cccc3c2n(C)c(=O)n3C2CCC(=O)NC2=O)CC1 (some centres unmarked) [I-356],> 200,< 10
CN(C[C@H]1CC[C@H](n2cc(NC(=O)c3cnn4ccc(N5CCOC6(CCC6)C5)nc34)c(C(F)F)n2)CC1)C1CCN(c2cccc3c2n(C)c(=O)n3C2CCC(=O)NC2=O)CC1 (some centres unmarked) [I-357],> 200,< 10
CC1CN(c2ccn3ncc(C(=O)Nc4cn([C@H]5CC[C@H](CN(C)C6CCN(c7cccc8c7n(C)c(=O)n8C7CCC(=O)NC7=O)CC6)CC5)nc4C(F)F)c3n2)CCO1 (some centres unmarked) [I-358],> 200,> 200
